Results from publication PMC12371491 (ACS Bio & Med Chem Au, 2025).

Target: T1, dihydrofolate synthetase (DHFS) (Escherichia coli, UniProt P08192)
T1 sequence (P08192 1-422): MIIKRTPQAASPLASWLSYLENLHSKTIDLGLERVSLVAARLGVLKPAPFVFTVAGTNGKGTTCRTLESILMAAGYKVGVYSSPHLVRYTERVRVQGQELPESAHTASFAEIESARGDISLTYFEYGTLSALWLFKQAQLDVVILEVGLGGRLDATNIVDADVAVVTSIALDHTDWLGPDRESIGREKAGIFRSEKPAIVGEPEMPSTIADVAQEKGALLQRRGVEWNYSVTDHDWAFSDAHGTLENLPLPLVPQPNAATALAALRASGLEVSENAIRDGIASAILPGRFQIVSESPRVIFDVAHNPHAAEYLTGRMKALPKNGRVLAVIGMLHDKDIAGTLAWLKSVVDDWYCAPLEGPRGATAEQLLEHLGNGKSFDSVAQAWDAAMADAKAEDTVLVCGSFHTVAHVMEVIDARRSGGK
Assay: PK/LDH-coupled steady-state kinetics and LC-MS of product
Type: biochemical

Nc1nc2c(c(=O)[nH]1)NC(CNc1ccc(C(=O)N[C@@H](CCC(=O)O)C(=O)O)cc1)CN2 (stereo partly shown) [THF]
PK/LDH-coupled steady-state kinetics and LC-MS of product: we used fully reduced THF as the substrate and assay for poly glutamylation
